Experimental data: patent US20260234157A1, “COMPOUND AND METHOD FOR TARGETED DEGRADATION OF ANDROGEN RECEPTOR” (Gan & Lee Pharmaceuticals Co., Ltd., priority 2023, published 2026)
Residue numbers refer to the chain shown, from its start. Where two headings read alike, the source gives them in different places.

Columns and labels:
Assay type in all cases: cell-based
LNCaP FGC cells = experiment: Inhibition of proliferation of LNCaP cells (WST-8); conditions: Homo sapiens, LNCaP, 96 h
Protocol: The cells were cultured in a cell culture incubator with 5% CO2 at 37° C. overnight. […] On the sixth day, 96 well plates were taken out, and 20 μL of WST-8 (Beytime, C0040) reagent was added to each well.

VCaP cells = experiment: Inhibition of proliferation of VCaP cells (WST-8); conditions: Homo sapiens, read-out: IC50 for inhibiting the proliferation of VCaP cells
Protocol: The inhibitory activity of the compounds disclosed in the present disclosure on the proliferation of VCaP cells
On the first day of the experiment, […] were inoculated in 96 well plates at a density of 15000 cells per well using DMEM medium containing 10% fetal bovine serum, with 100 μL of cell suspension per well. The cells were cultured in a cell culture incubator with 5% CO2 at 37° C. overnight. […] On the ninth day, 96 well plates were taken out, and 20 μL of WST-8 (Beytime, C0040) reagent was added to each well.

AR protein [1] = target: T1, AR protein (Homo sapiens, UniProt P10275, T878A); experiment: Degradation of AR protein in LNCaP cells (Western blot); conditions: for inhibition at 0.01 µM: read-out: Degradation rates of the AR protein in LNCaP cells, 10 nM (%); for inhibition at 0.1 µM: read-out: Degradation rates of the AR protein in LNCaP cells, 100 nM (%)
T1 construct: degradation activity of the compounds disclosed in the present disclosure on AR protein in LNCaP cells; host or cells: LNCaP FGC
T1 sequence (P10275 1-920 T878A): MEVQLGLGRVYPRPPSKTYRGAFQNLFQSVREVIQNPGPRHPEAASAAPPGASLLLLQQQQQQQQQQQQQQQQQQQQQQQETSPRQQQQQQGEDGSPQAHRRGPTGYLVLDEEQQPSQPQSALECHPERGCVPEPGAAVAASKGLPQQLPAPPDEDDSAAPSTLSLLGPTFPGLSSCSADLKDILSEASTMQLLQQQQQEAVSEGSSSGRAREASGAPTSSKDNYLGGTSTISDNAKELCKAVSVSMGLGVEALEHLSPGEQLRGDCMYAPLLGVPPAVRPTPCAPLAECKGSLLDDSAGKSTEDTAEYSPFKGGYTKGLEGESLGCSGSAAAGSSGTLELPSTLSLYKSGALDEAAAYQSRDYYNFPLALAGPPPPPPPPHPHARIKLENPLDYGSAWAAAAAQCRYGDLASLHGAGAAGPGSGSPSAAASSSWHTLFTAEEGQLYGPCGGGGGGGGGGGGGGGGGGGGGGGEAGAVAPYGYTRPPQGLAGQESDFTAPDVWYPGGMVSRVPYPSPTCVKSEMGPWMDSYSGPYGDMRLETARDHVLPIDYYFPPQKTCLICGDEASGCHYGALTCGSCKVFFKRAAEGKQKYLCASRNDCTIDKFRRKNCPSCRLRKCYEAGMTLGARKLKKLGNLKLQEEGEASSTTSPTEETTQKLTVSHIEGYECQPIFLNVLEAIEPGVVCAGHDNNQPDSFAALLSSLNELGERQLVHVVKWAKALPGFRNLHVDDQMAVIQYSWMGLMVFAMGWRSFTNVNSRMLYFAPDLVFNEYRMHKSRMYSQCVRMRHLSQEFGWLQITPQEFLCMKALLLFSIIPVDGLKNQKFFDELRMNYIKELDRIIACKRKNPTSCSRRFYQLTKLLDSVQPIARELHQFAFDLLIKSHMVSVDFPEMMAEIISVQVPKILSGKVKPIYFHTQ
Outline: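 Percent AR degradation was derived from GAPDH-normalised Western blot band intensities (infrared detection) in LNCaP lysates.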

AR protein [2] = target: T2, AR protein (Homo sapiens, UniProt P10275); experiment: Degradation of AR protein in VCaP cells (Western blot); conditions: 8 hours; for inhibition at 0.01 µM: compound at 10 nM, read-out: Degradation rate of the AR protein in VCaP cells, 10 nM (%); for inhibition at 0.1 µM: compound at 100 nM, read-out: Degradation rate of the AR protein in VCaP cells, 100 nM (%)
T2 construct: degradation activity of the compounds disclosed in the present disclosure on AR protein in VCaP cells; host or cells: VCaP
T2 sequence (P10275 1-920): T1 sequence (P10275 1-920 T878A) with A878T
Outline: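 Western blot readout: AR band grayscale normalised to GAPDH, used to derive degradation rate. Lysates came from VCaP cells exposed to compound for 8 h, with solvent controls run in parallel.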

[3] = read-out: IC50 for inhibiting the proliferation of LNCaP cells, LNCaP FGC cells, 96 hours, WST-8 absorbance at 450 nm
[4] = LNCaP FGC cells, 96 hours, WST-8 absorbance at 450 nm, read-out: IC50 for inhibiting the proliferation of LNCaP cells
[5] = VCaP cells, 168 hours, WST-8 absorbance at 450 nm
[6] = LNCaP cells, compound 10 nM, 8 hours, Western blot grayscale, GAPDH internal reference
[7] = LNCaP cells, compound 100 nM, 8 hours, Western blot grayscale, GAPDH internal reference

| IC50 (LNCaP FGC cells; [4]) [µM] | inhibition at 0.01 µM (AR protein [2]) [%] | inhibition at 0.1 µM (AR protein [2]) [%] | Compound | IC50 (VCaP cells; VCaP, 168 h) [µM] | further results |
| --- | --- | --- | --- | --- | --- |
| – | – | – | CC1(C)C(=O)N(c2ccc(C#N)c(C(F)(F)F)c2)C(=S)N1c1ccc(C(=O)N2CC3(CCC(N4CCC5(CC4)COc4cc6c(cc4C5)C(=O)N(C4CCC(=O)NC4=O)C6=O)CC3)C2)c(F)c1 (stereo not drawn) [Compound 86] | 2.49 | IC50 (LNCaP FGC cells; [3]): 4.53 µM |
| – | – | – | CC1(C)C(=O)N(c2ccc(C#N)c(C(F)(F)F)c2)C(=S)N1c1ccc(C(=O)N2CCC(F)(CN3CCC4(CCc5cc6c(cc5O4)C(=O)N(C4CCC(=O)NC4=O)C6=O)CC3)CC2)c(F)c1 (stereo not drawn) [Compound 97] | 1.3 | – |
| – | – | – | N#Cc1ccc(O[C@H]2CC[C@H](NC(=O)c3ccc(N4CC5(CCC(N6CCC(N7CCC8(CC7)COc7c8ccc8c7CN(C7CCC(=O)NC7=O)C8=O)CC6)CC5)C4)nn3)CC2)cc1Cl (stereo partly drawn) [Compound 175] | 0.01 | IC50 (LNCaP FGC cells; [3]): 8.07 µM |
| 13.6 | – | – | N#Cc1ccc(O[C@H]2CC[C@H](NC(=O)c3ccc(N4CCC(F)(CN5CCC6(CCc7ccc8c(c7O6)C(=O)N(C6CCC(=O)NC6=O)C8)CC5)CC4)nn3)CC2)cc1Cl (stereo partly drawn) [Compound 163] | – | IC50 (VCaP cells; [5]): 0.65 µM |
| 0.73 | – | – | CC1(CN2CC3(CCc4cc5c(cc4O3)CN(C3CCC(=O)NC3=O)C5=O)C2)CCN(c2ccc(C(=O)N[C@H]3CC[C@H](Oc4ccc(C#N)c(Cl)c4)CC3)nn2)CC1 (stereo partly drawn) [Compound 80] | – | IC50 (VCaP cells; [5]): 2.83 µM |
| – | – | – | CC1(C)C(=O)N(c2ccc(C#N)c(C(F)(F)F)c2)C(=S)N1c1ccc(C(=O)N2CC(N3CCC4(CCc5cc6c(cc5O4)C(=O)N(C4CCC(=O)NC4=O)C6)CC3)C2)c(F)c1 (stereo not drawn) [Compound 105] | 2.96 | – |
| – | – | – | CC1(C)C(=O)N(c2ccc(C#N)c(C(F)(F)F)c2)C(=S)N1c1ccc(C(=O)N2CCC(N3CCC4(CCc5cc6c(cc5O4)C(=O)N(C4CCC(=O)NC4=O)C6=O)CC3)CC2)c(F)c1 (stereo not drawn) [Compound 101] | 3.75 | – |
| – | – | – | CC1(C)C(=O)N(c2ccc(C#N)c(C(F)(F)F)c2)C(=S)N1c1ccc(C(=O)N2CCC3(CC2)CC(N2CCC4(CCc5cc6c(cc5O4)C(=O)N(C4CCC(=O)NC4=O)C6=O)CC2)C3)c(F)c1 (stereo not drawn) [Compound 103] | – | IC50 (VCaP cells; [5]): 2.74 µM |
| – | – | – | CC1(C)C(=O)N(c2ccc(C#N)c(C(F)(F)F)c2)C(=S)N1c1ccc(C(=O)N2CC3(CC(N4CCC5(CC4)COc4cc6c(cc45)C(=O)N(C4CCC(=O)NC4=O)C6=O)C3)C2)c(F)c1 (stereo not drawn) [Compound 92] | 4.09 | – |
| – | – | – | CC1(C)C(=O)N(c2ccc(C#N)c(C(F)(F)F)c2)C(=S)N1c1ccc(C(=O)N2CC(N3CCC4(CCc5cc6c(cc5O4)C(=O)N(C4CCC(=O)NC4=O)C6=O)CC3)C2)c(F)c1 (stereo not drawn) [Compound 102] | 3.88 | – |
| 13.6 | 35 | 76 | N#Cc1ccc(O[C@H]2CC[C@H](NC(=O)c3ccc(N4CC5(CCC(N6CCC7(CCc8ccc9c(c8O7)CN(C7CCC(=O)NC7=O)C9=O)CC6)CC5)C4)nn3)CC2)cc1Cl (stereo partly drawn) [Compound 153] | – | inhibition at 0.01 µM (AR protein [1]; [6]): 23%; inhibition at 0.1 µM (AR protein [1]; [7]): 19% |
| 88.6 | -26 | -32 | COc1cc(O[C@H]2C(C)(C)[C@H](NC(=O)c3ccc(N4CCC(C)(CN5CCC6(CCc7ccc8c(c7O6)C(=O)N(C6CCC(=O)NC6=O)C8=O)CC5)CC4)cc3)C2(C)C)ccc1C#N (stereo partly drawn) [Compound 268] | – | inhibition at 0.01 µM (AR protein [1]; [6]): 15%; inhibition at 0.1 µM (AR protein [1]; [7]): 31% |
| – | – | – | CC1(C)C(=O)N(c2ccc(C#N)c(C(F)(F)F)c2)C(=S)N1c1ccc(C(=O)N2CCC(CN3CCC4(CCc5cc6c(cc5O4)C(=O)N(C4CCC(=O)NC4=O)C6=O)CC3)CC2)c(F)c1 (stereo not drawn) [Compound 99] | 3.8 | – |
| – | 37 | 43 | COc1cc(O[C@H]2CC[C@H](NC(=O)c3cnc(N4CCC(CN5CC6(CCc7cc8c(cc7O6)C(=O)N(C6CCC(=O)NC6=O)C8=O)C5)(OC)CC4)nc3)CC2)ccc1C#N (stereo partly drawn) [Compound 232] | – | inhibition at 0.01 µM (AR protein [1]; [6]): 33%; inhibition at 0.1 µM (AR protein [1]; [7]): 36%; IC50 (VCaP cells; [5]): 4.41 µM |
| 91 | 25 | 57 | N#Cc1ccc(O[C@H]2CC[C@H](NC(=O)c3ccc(N4CCC5(CC4)COc4c5ccc5c4CN(C4CCC(=O)NC4=O)C5=O)nn3)CC2)cc1Cl (stereo partly drawn) [Compound 200] | – | inhibition at 0.01 µM (AR protein [1]; [6]): 44%; inhibition at 0.1 µM (AR protein [1]; [7]): 27% |
| – | – | – | CC1(C)C(=O)N(c2ccc(C#N)c(C(F)(F)F)c2)C(=S)N1c1ccc(C(=O)N2CC(CN3CCC4(CCc5cc6c(cc5O4)C(=O)N(C4CCC(=O)NC4=O)C6=O)CC3)C2)c(F)c1 (stereo not drawn) [Compound 84] | 4.57 | – |
| 0.55 | 10 | 55 | N#Cc1ccc(O[C@H]2CC[C@H](NC(=O)c3ccc(N4CCC5(CCC(C(=O)N6CCC7(CC6)COc6c7ccc7c6CN(C6CCC(=O)NC6=O)C7=O)CC5)CC4)nn3)CC2)cc1Cl (stereo partly drawn) [Compound 253] | – | inhibition at 0.01 µM (AR protein [1]; [6]): 37%; inhibition at 0.1 µM (AR protein [1]; [7]): 41% |

| Compound | IC50 (LNCaP FGC cells; [4]) [µM] | inhibition at 0.01 µM (AR protein [2]) [%] | inhibition at 0.1 µM (AR protein [2]) [%] | IC50 (VCaP cells; VCaP, 168 h) [µM] | further results |
| --- | --- | --- | --- | --- | --- |
| N#Cc1ccc(O[C@H]2CC[C@H](NC(=O)c3ccc(N4CC(N5CCC6(CCc7cc8c(cc7O6)C(=O)N(C6CCC(=O)NC6=O)C8)CC5)C4)nn3)CC2)cc1Cl (stereo partly drawn) [Compound 46] | – | 39 | 59 | 0.11 | inhibition at 0.01 µM (AR protein [1]; LNCaP, 8 h): 35%; inhibition at 0.1 µM (AR protein [1]; LNCaP, 8 h): 47% |
| COc1cc(O[C@H]2CC[C@H](NC(=O)c3ccc(N4CCC(CN5CC6(CCc7cc8c(cc7O6)C(=O)N(C6CCC(=O)NC6=O)C8=O)C5)(OC)CC4)cc3)CC2)ccc1C#N (stereo partly drawn) [Compound 285] | – | -5 | 66 | – | IC50 (LNCaP FGC cells; [3]): 0.84 µM; inhibition at 0.01 µM (AR protein [1]; LNCaP, 8 h): 40%; inhibition at 0.1 µM (AR protein [1]; LNCaP, 8 h): 54% |
